Assay results published in US9890192B2, “Targeted nitroxide agents” (University of Pittsburgh—of the Commonwealth System of …, priority 2008, dated 2018).
“Also recorded” adds a separate entry of the source.

Assays:
[1] = tested on: rat ileal mucosal permeability; assay: Intestinal mucosal permeability assay (FD4) after hemorrhagic shock; assay type: in vivo
Method: Intestinal mucosal permeability assay. Animals were allowed access to water but not food for 24 h prior to the experiment in order to decrease the volume of intestinal contents. The rats were instrumented as described above. A midline laparotomy was performed and the small intestine was exteriorized from the duodenojejunal junction to the ileocecal valve. A small incision was made on the antimesenteric aspect of the proximal small intestine and saline solution (1.5 ml) was injected. The bowel was ligated proximally and distally to the incision with 4-0 silk (Look, Reading, Pa.).
The small intestine was compressed gently in aboral direction along its length to displace intestinal contents into the colon. Starting 5 cm from the ileocecal valve, the ileum was partitioned into six contiguous water-tight segments. Each segment was 3 cm long and was bounded proximally and distally by constricting circumferential 4-0 silk sutures. Care was taken to ensure that the vascular supply to intestine was not compromised, and each segment was well-perfused.
Two randomly selected segments in each rat were injected with 0.3 ml of vehicle and served as “no treatment” controls. In order to fill the segments, a small incision was made and the solution was injected using a Teflon catheter (Abbocath 16Ga, Abbot Laboratories).
The remaining four other segments were injected with solutions containing either 4-hydroxy-2,2,6,6-tetramethylpiperidine-N-oxyl (TEMPOL) or one of the Gramicidin S-based compounds. Four different final concentrations of TEMPOL in normal saline were evaluated: 0.1, 1, 5 and 20 mM. The hemigranmicidin-based compounds were dissolved in a mixture of dimethylsulfoxide (DMSO) and normal saline (1:99 v/v) and injected at final concentrations of 0.1, 1, 10 or 100 μM. […]
Fluorescence of FD4 in the solution inside the beaker and within each gut sac was measured using a fluorescence spectrophotometer (LS-50, Perkin-Elmer, Palo Alto, Calif.) at an excitation wavelength of 492 nm and an emission wavelength of 515 nm. […]

[2] = tested on: caspases 3 and 7; assay: Caspases 3 and 7 activity assay in gut mucosa after hemorrhagic shock; assay type: in vivo, rat; details: intraluminal XJB-5-131 solution vs vehicle
Method: Caspases 3 and 7 activity assay. Caspases 3 and 7 activity was measured using a commercially available assay kit, Caspase Glo™ 3/7 assay kit (Promega, Madison, Wis.). Briefly, 50 μl of rat gut mucosa homogenate (20 jug protein) was mixed with 50 μl of Caspase-Glo™ reagent and incubated at room temperature for 1 hour. At the end of incubation period, the luminescence of each sample was measured using a plate reading chemiluminometer (ML1000, Dynatech Laboratories, Horsham, Pa.). Activity of caspases 3 and 7 was expressed as luminescence intensity (arbitrary units per mg protein). Protein concentrations were determined using the BioRad assay (Bio-Rad Laboratories, Inc., Hercules, Calif.).
After two hours of HS, samples of ileal mucosa from the gut sacs filled with the vehicle and XJB-5-131 were obtained and compared with ileal mucosa of normal MECs. All samples were assayed with caspase 3 or caspase 7 activity as well as the peroxidation of phosphatidylcholine (“PC”), phosphatidylethanolamine (“PE”), phosphatidylserine (“PS”), and cardiolipin (“CL”), summarized in FIG. 7.

[3] = tested on: progeroid Ercc1−/Δ mice; assay: Signs of aging in progeroid Ercc1−/Δ mice; assay type: in vivo, mouse; details: 2 mg/kg intraperitoneally three times per week
Method: To assess the effectiveness of XJB-5-131 in inhibiting degeneration and/or signs of aging, the compound was administered, over an 18-21 week period, progeroid Ercc1^−/Δ mice, at a dose of 2 mg/kg in sunflower oil carrier (to promote solubility) administered intraperitoneally three times per week (FIG. 32). Sunflower seed oil was administered to twin Ercc1^−/Δ mice according to the same schedule as a control. The treated and control mice were monitored twice a week for weight and symptom/sign development.
FIG. 33 presents a summary table showing the results of the treatment with XJB-5-131 (“XJB” in this figure), relative to control (sunflower seed oil) after treatment from 5 wks of life until death. The numbers indicate the average age at onset of each age-related symptom for mice treated with XJB-5-131 or vehicle only (oil) (n=5 mice per group). […] Of note, all of the signs of neurodegeneration, including dystonia, trembling, ataxia, wasting and urinary incontinence were delayed in the treated animals, providing strong evidence that XJB-5-131 protects neurons against degenerative changes caused by oxidative stress.
To assess the ability of XJB-5-131 to inhibit deterioration of intervertebral discs (an index of degenerative disease of the vertebra), the level of glycosaminoglycan in the discs in treated and control mice were measured, and the results are shown in FIG. 34. The intervertebral discs of treated mice contained approximately 30 percent more glycosaminoglycan relative to control mice, indicating inhibition of disc degeneration.

[4] = tested on: p16 in primary MEFs from Ercc1−/− mouse embryos; assay: p16 immunofluorescence in Ercc1−/− MEFs under 20% oxygen; assay type: cell-based; details: 1 uM, 48 hrs
Method: To test the protective activity of JP4-039, cultures of primary MEFs were prepared from Ercc1^−/− mouse embryos and grown under 20% oxygen (ambient air), which creates oxidative stress in these cells that are hypersensitive to reactive oxygen species. The cells were then either treated with a concentration of 1 uM XJB-5-131, JP4-039, JED-E71-37 or JED-E71-58, or left untreated (media), and then after 48 hrs the level of p16, a marker of irreversible cellular senescence, was measured by immunofluorescence staining.

For `CC(C)C[C@@H](/C=C/[C@H](Cc1ccccc1)C(=O)N1CCC[C@H]1C(=O)N[C@H](C(=O)N[C@@H](CCCNC(=O)OCc1ccccc1)C(=O)NC1CC(C)(C)N([O])C(C)(C)C1)C(C)C)NC(=O)OC(C)(C)C` [XJB-5-131], the “potency relative to TEMPOL” value ([1]; from lowest effective concentrations) was roughly 1000 fold, the “hemorrhagic shock-induced mucosal hyperpermeability, of the control value” ([1]; intraluminal) was “approximately 60%” and the lowest effective concentration ([1]; intraluminal) was 1 µM. For the same compound, the “caspase 3 and 7 activity after hemorrhagic shock” value [2] was “significantly decreased”, the “age at onset of age-related symptoms” value [3] was “significantly delayed” and the “body weight / tolerability” value [3] was “did not lose weight; also recorded: does not cause weight loss”. The “glycosaminoglycan in intervertebral discs, more relative to control mice” value [3] was “approximately 30%”, the overall aging score [3] was “significantly improved” and the “signs of neurodegeneration (dystonia, trembling, ataxia, wasting, urinary incontinence)” value [3] was “delayed”. For the same compound, the “level of p16” value [4] was “less effective”.
